Measurements as given in US9060515B2, “Heterocyclic urea compounds” (BIOTA EUROPE LTD, priority 2011, dated 2015).
In brackets after ≈: the same amount, converted by molar mass.

The compounds below were run on S. aureus (ATCC 29213) (assay: Antibacterial susceptibility testing (MIC, broth microdilution or agar dilution), S. aureus). Details: Staphylococcus aureus, ATCC29213; read-out: S. aureus (ATCC 29213) minimal inhibitory concentration (MIC).
Assay type: cell-based
Procedure: (§1) Compounds of the invention were tested for antimicrobial activity by susceptibility testing in liquid or on solid media. MICs for compounds against each strain were determined by the broth microdilution or agar dilution method according to the guidelines of the Clinical Laboratories and Standards Institute, formerly the National Committee for Clinical Laboratory Standards (Clinical Laboratories and Standards Institute. Methods for Dilution Antimicrobial Susceptibility Tests for Bacteria That Grow Aerobically; Approved Standard—Seventh Edition. Document M7-A7. CLSI, Wayne, Pa., 2006; Clinical Laboratories and Standards Institute. The Gram positive bacterial strains tested include S. aureus (Staphylococcus aureus (Isolate ID ATCC 29213)), E. faecalis (Enterococcus faecalis (Isolate ID ATCC 29212)) and S. pyogenes (Streptococcus pyogenes (Isolate ID ATCC 51339)). The Gram negative bacterial strains tested include H. influenzae (Haemophilus influenzae (Isolate ID ATCC 49247)).
`CCNC(=O)Nc1cc(Nc2ccccc2)c(C(=O)Nc2ccc(OC)nc2)cn1` [Compound 63, 6-(3-ethylureido)-N-(6-methoxypyridin-3-yl)-4-(phenylamino)nicotinamide] was tested, and the MIC was no more than 1 µg/mL.
`CCNC(=O)Nc1cc(Nc2ccccc2)c(C(=O)Nc2ccc3nccn3c2)cn1` [Compound 76, 6-(3-ethylureido)-N-(imidazo[1,2-a]pyridin-6-yl)-4-(phenylamino)nicotinamide] showed an MIC of 2 µg/mL (≈ 4.81 µM).
With `CCNC(=O)Nc1cc(Nc2ccccc2)c(C(=O)Nc2ccc(C(F)(F)F)cc2)cn1` [Compound 47, 6-(3-ethylureido)-4-(phenylamino)-N-(4-(trifluoromethyl)phenyl)nicotinamide] the MIC was 4 µg/mL (≈ 9.02 µM).
`CCNC(=O)Nc1cc(Nc2ccc(C(F)(F)F)cc2)c(C(=O)Nc2cccnc2)cn1` [Compound 142] gave an MIC of 2 µg/mL (≈ 4.5 µM).
`CCNC(=O)Nc1cc(Nc2cccc(Cl)c2)c(C(=O)Nc2cccnc2)cn1` [Compound 107, 4-(3-chlorophenylamino)-6-(3-ethylureido)-N-(pyridin-3-yl)nicotinamide] was tested, and the MIC was no more than 1 µg/mL.
Work on `CCNC(=O)Nc1cc(Nc2ccccc2)c(C(=O)Nc2ccc(Cl)cc2)cn1` [Compound 34, N-(4-chlorophenyl)-6-(3-ethylureido)-4-(phenylamino)nicotinamide] yielded an MIC of 4 µg/mL (≈ 9.76 µM).
`CCNC(=O)Nc1cc(Nc2cccc(C(=O)OC)c2)c(C(=O)Nc2cccnc2)cn1` [Compound 97, methyl 3-(2-(3-ethylureido)-5-(pyridin-3-ylcarbamoyl)pyridin-4-ylamino)benzoate] showed an MIC of 2 µg/mL (≈ 4.6 µM).
Work on `CCNC(=O)Nc1cc(Nc2cccnc2)c(C(=O)Nc2ccc(NCC3(C(=O)OC)CCC3)nc2)cn1` [Compound 156, methyl 1-[({5-[({6-[(ethylcarbamoyl)amino]-4-(pyridin-3-ylamino)pyridin-3-yl}carbonyl)amino]pyridin-2-yl}amino)methyl]cyclobutane carboxylate] yielded an MIC of 16 µg/mL (≈ 30.9 µM).
In the case of `CCNC(=O)Nc1cc(Nc2cccnc2)c(C(=O)Nc2ccc(CC(C)(C)C(=O)OC)cc2)cn1` [Compound 170, methyl 3-{4-[({6-[(ethylcarbamoyl)amino]-4-(pyridin-3-ylamino)pyridin-3-yl}carbonyl)amino]phenyl}-2,2-dimethylpropanoate], the MIC was no more than 1 µg/mL.
Work on `CCNC(=O)Nc1cc(Nc2ccnc(C)c2)c(C(=O)Nc2cccnc2)cn1` [Compound 162] yielded an MIC of 8 µg/mL (≈ 20.4 µM).
`CCNC(=O)Nc1cc(Nc2ccccc2)c(C(=O)Nc2ccc(F)c(F)c2)cn1` [Compound 69, N-(3,4-difluorophenyl)-6-(3-ethylureido)-4-(phenylamino)nicotinamide] was tested, and the MIC was no more than 1 µg/mL.
For `CCNC(=O)Nc1cc(Nc2ccccc2)c(C(=O)Nc2ccncc2)cn1` [Compound 42, 6-(3-ethylureido)-4-(phenylamino)-N-(pyridin-4-yl)nicotinamide], the MIC was no more than 1 µg/mL.
Compound `CCNC(=O)Nc1cc(Nc2cncc(OC)c2)c(C(=O)Nc2cccnc2)cn1` [Compound 174] has an MIC of 4 µg/mL (≈ 9.82 µM).
Compound `CCNC(=O)Nc1cc(Nc2cccc(C(F)(F)F)c2)c(C(=O)Nc2cccnc2)cn1` [Compound 141] has an MIC of no more than 1 µg/mL.
With `CNC(=O)Nc1cc(Nc2ccccc2)c(C(=O)Nc2ccc(CCC(=O)O)cc2)cn1` [Compound 186, 3-{4-[({6-[(methylcarbamoyl)amino]-4-(phenylamino)pyridin-3-yl}carbonyl)amino]phenyl}propanoic acid] the MIC was 32 µg/mL (≈ 73.8 µM).
In the case of `CCNC(=O)Nc1cc(Nc2cncc(C)c2)c(C(=O)Nc2cccnc2)cn1` [Compound 157], the MIC was 8 µg/mL (≈ 20.4 µM).
With `CCNC(=O)Nc1cc(Nc2ccc(Cl)cc2)c(C(=O)Nc2ccc(C#CC(C)(C)O)cc2)cn1` [Compound 185, 4-[(4-chlorophenyl)amino]-6-[(ethylcarbamoyl)amino]-N-[4-(3-hydroxy-3-methylbut-1-yn-1-yl)phenyl]pyridine-3-carboxamide] the MIC was 8 µg/mL (≈ 16.3 µM).
`CCNC(=O)Nc1cc(Nc2cccnc2)c(C(=O)Nc2ccc([C@@H]3C[C@H]3C(=O)O)cc2)cn1` [Compound 193] showed an MIC of 32 µg/mL (≈ 69.5 µM).
Work on `CCNC(=O)Nc1cc(Nc2ccccc2F)c(C(=O)Nc2cccnc2)cn1` [Compound 144] yielded an MIC of no more than 1 µg/mL.
For `CCNC(=O)Nc1cc(Nc2cccnc2)c(C(=O)Nc2ccc(CCC(=O)O)cc2)cn1` [Compound 153, 3-{4-[({6-[(ethylcarbamoyl)ami-no]-4-(pyridin-3-ylamino)pyridin-3-yl}carbonyl)amino]phenyl}pro-opanoic acid], the MIC was 16 µg/mL (≈ 35.7 µM).
In the case of `CCNC(=O)Nc1cc(Nc2ccccc2)c(C(=O)Nc2ccc(C#CCO)cc2)cn1` [Compound 135, 6-[(Ethylcarbamoyl)amino]-N-[4-(3-hydroxyprop-1-yn-1-yl)phenyl]-4-(phenylamino)pyridine-3-carboxamide], the MIC was no more than 1 µg/mL.
Compound `CCNC(=O)Nc1cc(Nc2ccc(Cl)cc2)c(C(=O)Nc2cnc(NC3(C(=O)O)CCC3)nc2)cn1` [Compound 165, 1-({5-[({4-[(4-chlorophenyl)amino]-6-[(ethylcarbamoyl)amino]pyridin-3-yl}carbonyl)amino]pyrimidin-2-yl}amino) cyclobutanecarboxylic acid] has an MIC of 16 µg/mL (≈ 30.5 µM).
Work on `CCNC(=O)Nc1cc(Nc2ccc(OC)nc2)c(C(=O)Nc2cccnc2)cn1` [Compound 145] yielded an MIC of 4 µg/mL (≈ 9.82 µM).
With `CCNC(=O)Nc1cc(Nc2ccc(Cl)cc2)c(C(=O)Nc2ccc(-n3cc(CN)nn3)cc2)cn1` [Compound 194, N-{4-[4-(aminomethyl)-1H-1,2,3-triazol-1-yl]phenyl}-4-[(4-chlorophenyl)amino]-6-[(ethylcarbamoyl)amino]pyridine-3-carboxamide] the MIC was 8 µg/mL (≈ 15.8 µM).
In the case of `CCNC(=O)Nc1cc(Nc2cccnc2)c(C(=O)Nc2ccc(CCC(=O)OC)cc2)cn1` [Compound 147], the MIC was 4 µg/mL (≈ 8.65 µM).
`CCNC(=O)Nc1cc(Nc2ccc(C)nc2)c(C(=O)Nc2cccnc2)cn1` [Compound 167] showed an MIC of 16 µg/mL (≈ 40.9 µM).
`CCNC(=O)Nc1cc(Nc2ccc(Cl)cc2)c(C(=O)Nc2ccc(N=[N+]=[N-])cc2)cn1` [Compound 132, N-(4-azidophenyl)-4-[(4-chlorophenyl)amino]-6-[(ethylcarbamoyl)amino]pyridine-3-carboxamide] showed an MIC of 8 µg/mL (≈ 17.7 µM).
For `CCNC(=O)Nc1cc(Nc2ccc(F)cc2)c(C(=O)Nc2cccnc2)cn1` [Compound 139], the MIC was no more than 1 µg/mL.
`CCNC(=O)Nc1cc(Nc2ccc(C)cc2)c(C(=O)Nc2cccnc2)cn1` [Compound 140] showed an MIC of no more than 1 µg/mL.
With `CCNC(=O)Nc1cc(Nc2cccc(F)c2)c(C(=O)Nc2cccnc2)cn1` [Compound 143] the MIC was no more than 1 µg/mL.
In the case of `CCNC(=O)Nc1cc(Nc2ccc(OC)cc2)c(C(=O)Nc2ccc(CC(C)(C)C(=O)O)cc2)cn1` [Compound 208, 3-{4-[({6-[(ethylcarbamoyl)amino]-4-[(4-methoxyphenyl)amino]pyridin-3-yl}carbonyl)amino]phenyl}-2,2-dimethylpropanoic acid], the MIC was no more than 1 µg/mL.
In the case of `CCNC(=O)Nc1cc(Nc2cc(F)cc(F)c2)c(C(=O)Nc2ccc(Cc3nnn[nH]3)cc2)cn1` [Compound 209, 4-(3,5-difluoroanilino)-6-(ethylcarbamoylamino)-N-[4-(1H-tetrazol-5-ylmethyl)phenyl]pyridine-3-carboxamide], the MIC was no more than 1 µg/mL.

What follows are compounds tested on S. pyogenes (ATCC 51339) (assay: Antibacterial susceptibility testing (MIC, broth microdilution or agar dilution), S. pyogenes). Details: Streptococcus pyogenes, ATCC51339; read-out: S. pyogenes (ATCC 51339) minimal inhibitory concentration (MIC).
Assay type: cell-based
Procedure: as §1
Compound `CCNC(=O)Nc1cc(Nc2ccccc2)c(C(=O)Nc2ccc(OC)nc2)cn1` [Compound 63, 6-(3-ethylureido)-N-(6-methoxypyridin-3-yl)-4-(phenylamino)nicotinamide] has an MIC of no more than 1 µg/mL.
Compound `CCNC(=O)Nc1cc(Nc2ccc(C(=O)NC)cc2)c(C(=O)Nc2cccnc2)cn1` [Compound 126, 6-(3-ethylureido)-4-(4-(methylcarbamoyl)phenylamino)-N-(pyridin-3-yl)nicotinamide] has an MIC of 2 µg/mL (≈ 4.61 µM).
For `CCNC(=O)Nc1cc(Nc2ccccc2)c(C(=O)Nc2ccc3nccn3c2)cn1` [Compound 76, 6-(3-ethylureido)-N-(imidazo[1,2-a]pyridin-6-yl)-4-(phenylamino)nicotinamide], the MIC was no more than 1 µg/mL.
For `CCNC(=O)Nc1cc(Nc2ccccc2)c(C(=O)Nc2ccc(C(F)(F)F)cc2)cn1` [Compound 47, 6-(3-ethylureido)-4-(phenylamino)-N-(4-(trifluoromethyl)phenyl)nicotinamide], the MIC was 32 µg/mL (≈ 72.2 µM).
For `CCNC(=O)Nc1cc(Nc2cccc(Cl)c2)c(C(=O)Nc2cccnc2)cn1` [Compound 107, 4-(3-chlorophenylamino)-6-(3-ethylureido)-N-(pyridin-3-yl)nicotinamide], the MIC was 2 µg/mL (≈ 4.87 µM).
Compound `CCNC(=O)Nc1cc(Nc2ccccc2)c(C(=O)Nc2ccc(Cl)cc2)cn1` [Compound 34, N-(4-chlorophenyl)-6-(3-ethylureido)-4-(phenylamino)nicotinamide] has an MIC of 32 µg/mL (≈ 78.1 µM).
Work on `CCNC(=O)Nc1cc(Nc2cccc(C(=O)OC)c2)c(C(=O)Nc2cccnc2)cn1` [Compound 97, methyl 3-(2-(3-ethylureido)-5-(pyridin-3-ylcarbamoyl)pyridin-4-ylamino)benzoate] yielded an MIC of 32 µg/mL (≈ 73.7 µM).
Compound `CCNC(=O)Nc1cc(Nc2ccccc2)c(C(=O)Nc2ccc(F)c(F)c2)cn1` [Compound 69, N-(3,4-difluorophenyl)-6-(3-ethylureido)-4-(phenylamino)nicotinamide] has an MIC of 4 µg/mL (≈ 9.72 µM).
With `CCNC(=O)Nc1cc(Nc2ccccc2)c(C(=O)Nc2ccncc2)cn1` [Compound 42, 6-(3-ethylureido)-4-(phenylamino)-N-(pyridin-4-yl)nicotinamide] the MIC was no more than 1 µg/mL.
`CCNC(=O)Nc1cc(Nc2ccc(=O)n(C)c2)c(C(=O)Nc2cccnc2)cn1` [Compound 108, 6-(3-ethylureido)-4-(1-methyl-6-oxo-1,6-dihydropyridin-3-ylamino)-N-(pyridin-3-yl)nicotinamide] showed an MIC of 16 µg/mL (≈ 39.3 µM).
For `CCNC(=O)Nc1cc(Nc2ccc(C(N)=O)cc2)c(C(=O)Nc2cccnc2)cn1` [Compound 125, 4-(4-carbamoylphenylamino)-6-(3-ethylureido)-N-(pyridin-3-yl)nicotinamide], the MIC was no more than 1 µg/mL.
`CCNC(=O)Nc1cc(Nc2cccc(C(=O)O)c2)c(C(=O)Nc2cccnc2)cn1` [Compound 87, 3-(2-(3-ethylureido)-5-(pyridin-3-ylcarbamoyl)pyridin-4-ylamino)benzoic acid] gave an MIC of 8 µg/mL (≈ 19 µM).
With `CCNC(=O)Nc1cc(Nc2ccccc2)c(C(=O)Nc2cncc(C(=O)O)c2)cn1` [Compound 84, 5-(6-(3-ethylureido)-4-(phenylamino)nicotinamido)nicotinic acid] the MIC was 16 µg/mL (≈ 38.1 µM).
With `CCNC(=O)Nc1cc(Nc2ccc(C(=O)N(C)C)cc2)c(C(=O)Nc2cccnc2)cn1` [Compound 124, 4-(4-(dimethylcarbamoyl)phenylamino)-6-(3-ethylureido)-N-(pyridin-3-yl)nicotinamide] the MIC was 4 µg/mL (≈ 8.94 µM).
`CCNC(=O)Nc1cc(Nc2ccccc2)c(C(=O)Nc2c(C)noc2C)cn1` [Compound 50, N-(3,5-dimethylisoxazol-4-yl)-6-(3-ethylureido)-4-(phenylamino)nicotinamide] showed an MIC of 4 µg/mL (≈ 10.1 µM).
With `CCNC(=O)Nc1cc(Nc2ccc(CC(=O)O)cc2)c(C(=O)Nc2cccnc2)cn1` [Compound 114, 2-(4-(2-(3-ethylureido)-5-(pyridin-3-ylcarbamoyl)pyridin-4-ylamino)phenyl)acetic acid] the MIC was 8 µg/mL (≈ 18.4 µM).
Compound `CCNC(=O)Nc1cc(Nc2ccc(C(=O)O)cc2)c(C(=O)Nc2cccnc2)cn1` [Compound 16, 4-(2-(3-Ethylureido)-5-(pyridin-3-ylcarbamoyl)pyridin-4-ylamino)benzoic acid] has an MIC of no more than 1 µg/mL.
With `CCNC(=O)Nc1cc(Nc2ccccc2)c(C(=O)Nc2ccnnc2)cn1` [Compound 64, 6-(3-ethylureido)-4-(phenylamino)-N-(pyridazin-4-yl)nicotinamide] the MIC was no more than 1 µg/mL.
